From ChEMBL document CHEMBL3046781, “Resistance of Helicoverpa assulta (Guenée) (Lepidoptera: Noctuidae) to fenvalerate, phoxim and methomyl in China” (2009)

Experiments:
Format in all cases: functional
Helicoverpa assulta [1] = assay: Resistance factor, ratio of LD50 for sixth-instar larvae of Helicoverpa assulta SD1 to LD50 for sixth-instar larvae of Helicoverpa assulta at 1.8 to 183360 mg/l
Helicoverpa assulta [2] = assay: Resistance factor, ratio of LD50 for sixth-instar larvae of Helicoverpa assulta HB2 to LD50 for sixth-instar larvae of Helicoverpa assulta at 1.8 to 183360 mg/l
Helicoverpa assulta [3] = assay: Resistance factor, ratio of LD50 for sixth-instar larvae of Helicoverpa assulta HN1 to LD50 for sixth-instar larvae of Helicoverpa assulta at 1.8 to 183360 mg/l
Helicoverpa assulta [4] = assay: Resistance factor, ratio of LD50 for sixth-instar larvae of Helicoverpa assulta GZ5 to LD50 for sixth-instar larvae of Helicoverpa assulta at 1.8 to 183360 mg/l
Helicoverpa assulta [5] = assay: Resistance factor, ratio of LD50 for sixth-instar larvae of Helicoverpa assulta GZ4 to LD50 for sixth-instar larvae of Helicoverpa assulta at 1.8 to 183360 mg/l
Helicoverpa assulta [6] = assay: Resistance factor, ratio of LD50 for sixth-instar larvae of Helicoverpa assulta YN2 to LD50 for sixth-instar larvae of Helicoverpa assulta at 1.8 to 183360 mg/l
Helicoverpa assulta [7] = assay: Resistance factor, ratio of LD50 for sixth-instar larvae of Helicoverpa assulta YN5 to LD50 for sixth-instar larvae of Helicoverpa assulta at 1.8 to 183360 mg/l
Helicoverpa assulta [8] = assay: Resistance factor, ratio of LD50 for sixth-instar larvae of Helicoverpa assulta YN4 to LD50 for sixth-instar larvae of Helicoverpa assulta at 1.8 to 183360 mg/l
Helicoverpa assulta [9] = assay: Resistance factor, ratio of LD50 for sixth-instar larvae of Helicoverpa assulta YN8 to LD50 for sixth-instar larvae of Helicoverpa assulta at 1.8 to 183360 mg/l
Helicoverpa assulta [10] = assay: Insecticidal activity against sixth-instar larvae of Helicoverpa assulta YN6 at 1.8 to 183360 mg/l after 48 hr by chi-squared analysis
Helicoverpa assulta [11] = assay: Insecticidal activity against sixth-instar larvae of Helicoverpa assulta YN1 at 1.8 to 183360 mg/l after 48 hr by chi-squared analysis
Helicoverpa assulta [12] = assay: Insecticidal activity against sixth-instar larvae of Helicoverpa assulta YN4 at 1.8 to 183360 mg/l after 48 hr by chi-squared analysis
Helicoverpa assulta [13] = assay: Resistance factor, ratio of LD50 for sixth-instar larvae of Helicoverpa assulta YN1 to LD50 for sixth-instar larvae of Helicoverpa assulta at 39 to 12630 mg/l
Helicoverpa assulta [14] = assay: Resistance factor, ratio of LD50 for sixth-instar larvae of Helicoverpa assulta FJ3 to LD50 for sixth-instar larvae of Helicoverpa assulta at 39 to 12630 mg/l
Helicoverpa assulta [15] = assay: Resistance factor, ratio of LD50 for sixth-instar larvae of Helicoverpa assulta HN1 to LD50 for sixth-instar larvae of Helicoverpa assulta at 39 to 12630 mg/l
Helicoverpa assulta [16] = assay: Resistance factor, ratio of LD50 for sixth-instar larvae of Helicoverpa assulta HN2 to LD50 for sixth-instar larvae of Helicoverpa assulta at 39 to 12630 mg/l
Helicoverpa assulta [17] = assay: Resistance factor, ratio of LD50 for sixth-instar larvae of Helicoverpa assulta HB1 to LD50 for sixth-instar larvae of Helicoverpa assulta at 39 to 12630 mg/l
Helicoverpa assulta [18] = assay: Insecticidal activity against sixth-instar larvae of Helicoverpa assulta GZ1 at 39 to 12630 mg/l after 48 hr by chi-squared analysis
Helicoverpa assulta [19] = assay: Insecticidal activity against sixth-instar larvae of Helicoverpa assulta FJ2 at 39 to 12630 mg/l after 48 hr by chi-squared analysis
Helicoverpa assulta [20] = assay: Insecticidal activity against sixth-instar larvae of Helicoverpa assulta at 39 to 12630 mg/l after 48 hr by chi-squared analysis
Helicoverpa assulta [21] = assay: Insecticidal activity against sixth-instar larvae of Helicoverpa assulta SD2 at 39 to 12630 mg/l after 48 hr by chi-squared analysis
Helicoverpa assulta [22] = assay: Resistance factor, ratio of LD50 for sixth-instar larvae of Helicoverpa assulta GZ2 to LD50 for sixth-instar larvae of Helicoverpa assulta at 39 to 12630 mg/l
Helicoverpa assulta [23] = assay: Insecticidal activity against sixth-instar larvae of Helicoverpa assulta SD2 at 21 to 3390 mg/l after 48 hr by chi-squared analysis
Helicoverpa assulta [24] = assay: Insecticidal activity against sixth-instar larvae of Helicoverpa assulta HN1 at 21 to 3390 mg/l after 48 hr by chi-squared analysis
Helicoverpa assulta [25] = assay: Insecticidal activity against sixth-instar larvae of Helicoverpa assulta HN2 at 21 to 3390 mg/l after 48 hr by chi-squared analysis
Helicoverpa assulta [26] = assay: Resistance factor, ratio of LD50 for sixth-instar larvae of Helicoverpa assulta AH1 to LD50 for sixth-instar larvae of Helicoverpa assulta at 21 to 3390 mg/l
Helicoverpa assulta [27] = assay: Insecticidal activity against sixth-instar larvae of Helicoverpa assulta FJ1 at 21 to 3390 mg/l after 48 hr by chi-squared analysis
Helicoverpa assulta [28] = assay: Insecticidal activity against sixth-instar larvae of Helicoverpa assulta GZ2 at 21 to 3390 mg/l after 48 hr by chi-squared analysis
Helicoverpa assulta [29] = assay: Resistance factor, ratio of LD50 for sixth-instar larvae of Helicoverpa assulta YN7 to LD50 for sixth-instar larvae of Helicoverpa assulta at 21 to 3390 mg/l
Helicoverpa assulta [30] = assay: Resistance factor, ratio of LD50 for sixth-instar larvae of Helicoverpa assulta YN8 to LD50 for sixth-instar larvae of Helicoverpa assulta at 21 to 3390 mg/l
Helicoverpa assulta [31] = assay: Resistance factor, ratio of LD50 for sixth-instar larvae of Helicoverpa assulta AH2 to LD50 for sixth-instar larvae of Helicoverpa assulta at 21 to 3390 mg/l
Helicoverpa assulta [32] = assay: Resistance factor, ratio of LD50 for sixth-instar larvae of Helicoverpa assulta GZ3 to LD50 for sixth-instar larvae of Helicoverpa assulta at 21 to 3390 mg/l
Helicoverpa assulta [33] = assay: Resistance factor, ratio of LD50 for sixth-instar larvae of Helicoverpa assulta HN1 to LD50 for sixth-instar larvae of Helicoverpa assulta at 21 to 3390 mg/l
Helicoverpa assulta [34] = assay: Insecticidal activity against sixth-instar larvae of Helicoverpa assulta GZ1 at 21 to 3390 mg/l after 48 hr by chi-squared analysis
Helicoverpa assulta [35] = assay: Insecticidal activity against sixth-instar larvae of Helicoverpa assulta FJ3 at 21 to 3390 mg/l after 48 hr by chi-squared analysis

CC(C)C(C(=O)OC(C#N)c1cccc(Oc2ccccc2)c1)c1ccc(Cl)cc1 (centres undefined) [FENVALERATE]
Ratio (Helicoverpa assulta [1]): 9.8
Ratio (Helicoverpa assulta [2]): 28.5
Ratio (Helicoverpa assulta [3]): 64.9
Ratio (Helicoverpa assulta [4]): 189
Ratio (Helicoverpa assulta [5]): 347
Ratio (Helicoverpa assulta [6]): 1313
Ratio (Helicoverpa assulta [7]): 8816
Ratio (Helicoverpa assulta [8]): 9231
Ratio (Helicoverpa assulta [9]): 17622
LD90 (Helicoverpa assulta [10]): 1467 µg/g
LD50 (Helicoverpa assulta [10]; Helicoverpa assulta, YN6, 48 h): 667 mg/kg
LD90 (Helicoverpa assulta [11]): 4059 µg/g
LD50 (Helicoverpa assulta [11]; Helicoverpa assulta, YN1, 48 h): 1360 mg/kg
LD90 (Helicoverpa assulta [12]): 4847 µg/g
LD50 (Helicoverpa assulta [12]; Helicoverpa assulta, YN4, 48 h): 1500 mg/kg

CCOP(=S)(OCC)O/N=C(\C#N)c1ccccc1 [PHOXIM]
Ratio (Helicoverpa assulta [13]): 8.72
Ratio (Helicoverpa assulta [14]): 8.15
Ratio (Helicoverpa assulta [15]): 4.5
Ratio (Helicoverpa assulta [16]): 3.51
Ratio (Helicoverpa assulta [17]): 3.49
LD90 (Helicoverpa assulta [18]): 124 µg/g
LD50 (Helicoverpa assulta [18]; Helicoverpa assulta, GZ1, 48 h): 33.3 mg/kg
LD90 (Helicoverpa assulta [19]): 86.5 µg/g
LD50 (Helicoverpa assulta [19]; Helicoverpa assulta, FJ2, 48 h): 22 mg/kg
LD90 (Helicoverpa assulta [20]): 5.54 µg/g
LD50 (Helicoverpa assulta [20]; Helicoverpa assulta, 48 h): 2.34 mg/kg
LD90 (Helicoverpa assulta [21]): 50.5 µg/g
LD50 (Helicoverpa assulta [21]; Helicoverpa assulta, SD2, 48 h): 17.2 mg/kg
Ratio (Helicoverpa assulta [22]): 10.8

CNC(=O)ON=C(C)SC [METHOMYL]
LD90 (Helicoverpa assulta [23]): 41.8 µg/g
LD50 (Helicoverpa assulta [23]; Helicoverpa assulta, SD2, 48 h): 8.92 mg/kg
LD90 (Helicoverpa assulta [24]): 34 µg/g
LD50 (Helicoverpa assulta [24]; Helicoverpa assulta, HN1, 48 h): 6.48 mg/kg
LD90 (Helicoverpa assulta [25]): 24.2 µg/g
LD50 (Helicoverpa assulta [25]; Helicoverpa assulta, HN2, 48 h): 4.24 mg/kg
Ratio (Helicoverpa assulta [26]): 37.1
LD90 (Helicoverpa assulta [27]): 67.8 µg/g
LD50 (Helicoverpa assulta [27]; Helicoverpa assulta, FJ1, 48 h): 21.1 mg/kg
LD90 (Helicoverpa assulta [28]): 52.6 µg/g
LD50 (Helicoverpa assulta [28]; Helicoverpa assulta, GZ2, 48 h): 20.1 mg/kg
Ratio (Helicoverpa assulta [29]): 27
Ratio (Helicoverpa assulta [30]): 23.1
Ratio (Helicoverpa assulta [31]): 15.3
Ratio (Helicoverpa assulta [32]): 14.4
Ratio (Helicoverpa assulta [33]): 4.48
LD90 (Helicoverpa assulta [34]): 131 µg/g
LD50 (Helicoverpa assulta [34]; Helicoverpa assulta, GZ1, 48 h): 41.8 mg/kg
LD90 (Helicoverpa assulta [35]): 137 µg/g
LD50 (Helicoverpa assulta [35]; Helicoverpa assulta, FJ3, 48 h): 23.6 mg/kg
